Literature values as cited in US20220087839A1, “Arterial Drug Eluting Device to Treat Diabetes With Targeted Delivery of Medication” (Becton, Dickinson and Company, priority 2020, published 2022).

Key:
[1] = tested on: glucagon; settings: intravenous infusion of 25 micrograms per hour, Type 1 diabetic
[2] = tested on: human alpha-cells; settings: in vitro
[3] = tested on: glucagon; settings: intravenous infusion of 500 micrograms per hour, Type 1 diabetics
[4] = in vivo
[5] = tested on: beta and alpha cells of the pancreas

Molecule: CC[C@H](C)[C@H](NC(=O)[C@@H]1CCCN1C(=O)CNC(=O)[C@H](Cc1ccccc1)NC(=O)[C@H](CC(N)=O)NC(=O)[C@H](CC(N)=O)NC(=O)[C@H](CO)NC(=O)[C@H](CO)NC(=O)[C@H](Cc1c[nH]cn1)NC(=O)[C@@H](NC(=O)[C@H](CC(C)C)NC(=O)[C@H](Cc1ccccc1)NC(=O)[C@H](CC(N)=O)NC(=O)[C@H](C)NC(=O)[C@H](CC(C)C)NC(=O)[C@H](CCCNC(=N)N)NC(=O)[C@H](CCC(N)=O)NC(=O)[C@@H](NC(=O)[C@H](C)NC(=O)[C@@H]1CSSC[C@H](NC(=O)[C@@H](N)CCCCN)C(=O)N[C@@H](CC(N)=O)C(=O)N[C@@H]([C@@H](C)O)C(=O)N[C@@H](C)C(=O)N[C@@H]([C@@H](C)O)C(=O)N1)[C@@H](C)O)C(C)C)C(=O)N[C@@H](CC(C)C)C(=O)N1CCC[C@H]1C(=O)N1CCC[C@H]1C(=O)N[C@H](C(=O)N[C@@H](CC(N)=O)C(=O)N[C@H](C(=O)NCC(=O)N[C@@H](CO)C(=O)N[C@@H](CC(N)=O)C(=O)N[C@H](C(=O)N[C@@H](Cc1ccc(O)cc1)C(N)=O)[C@@H](C)O)C(C)C)[C@@H](C)O [Pramlintide]
- suppression of glucagon spike from a standardized meal [1]: could suppress a glucagon spike from a standardized meal

Molecule: leptin
- concentration that could suppress functional response to glucose [2]: 0.625 nmol/L

Molecule: somatostatin
- suppression of glucagon spikes [3]: suppressed glucagon spikes
- half life [4]: 3 min
- effect on insulin and glucagon release [5]: inhibit both insulin and glucagon release
